The values below come from patent US20030050236A1, “Compounds that enhance tumor death” (The University of Chicago, priority 2000, published 2003).

The subject of data set [1] is H-Ras- and N-Ras-encoded p21s. Conditions: cited from earlier work.
The conditions of data set [2]: cited from earlier work; for fraction of dose excreted / recovered in the urine: unchanged, intact or active drug.
Data set [3] has as its target T1, PPT1 (Homo sapiens, UniProt P50897).
T1 sequence (P50897 28-306): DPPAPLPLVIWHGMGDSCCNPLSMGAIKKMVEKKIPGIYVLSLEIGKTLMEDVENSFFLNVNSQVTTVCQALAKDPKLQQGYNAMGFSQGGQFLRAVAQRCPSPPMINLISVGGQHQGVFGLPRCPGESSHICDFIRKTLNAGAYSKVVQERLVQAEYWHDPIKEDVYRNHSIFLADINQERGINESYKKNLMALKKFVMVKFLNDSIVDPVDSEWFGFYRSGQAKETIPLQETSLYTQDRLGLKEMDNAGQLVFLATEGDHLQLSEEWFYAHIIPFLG
To be noted: cited from earlier work.

For data set [4] the following is noted: cited from earlier work.
Data set [5] relates to LA-N-5 human neuroblastoma cells. The data set can be described thus: Cell viability / cell death by MTT assay. It counts as cell-based. To be noted: LY-294002 30 μM, C2 ceramide 25 μM; 24 hrs.
Description: LA-N-5 human neuroblastoma cells were grown in DMEM supplemented with 10% fetal bovine serum and 1% gentamicin. […] Cell death was measured by the MTT method (Cho et al., 2000a; Cho et al., 2000b; Cho et al., 2000c).
The conditions of data set [6]: multiple myeloma, oral administration; cited from earlier work.
Data set [7] concerns the target T1, PPT1. The data set can be described thus: In vitro PPT1 activity assay, [14C]palmitoyl peptide substrates, cell extract.
Description: Incubations were performed for 20 min at 37° C. and reactions terminated by addition of 1 ml of chloroform/methanol/2N HCl (2:1:0.06, v/v). After the centrifugation, organic phase was analyzed by HPTLC using n-butanol/pyridine/acetic acid/water (45:30:9:36, v/v) and [14C] palmitate release was quantified.
The peptide sequence, AcGCVKIKK (a palmitoylation site in K-Ras), was modified by substituting the SH group of cysteine with NH2 to generate diamino propionic acid, which was then acylated with palmitate (AcG-palmitoyl diamino propionate-VKIKK). […] In another set of experiments, the unmodified peptide itself (AcGCVKIKK) was used as a control to exclude the possibility of a nonspecific effect of the sequence on PPT activity.
In brief, the cell sonicate was incubated in the assay mixture containing 50 mM sodium citrate (pH 4.0) and IRY([^4C]palmitoylated)CWLRR octapeptide (2,000-4,000 cpm) for 20 min at 37° C. For the pH profile of PPT1 activity, 50 mM sodium citrate (pH 5 or 6) or 50 mM Tris-HCl (pH 7.4) was used with other conditions remaining the same. After addition of 1 ml of chloroform/methanol/2N HCl (2:1:0.06, by volume) and centrifugation, the organic phase was dried, reconstituted sample analyzed by HPTLC using n-butanol/pyridine/acetic acid/water (45:30:9:36, by volume) and the radioactive spot corresponding to [^14C] palmitate was counted.
PPT1 activity was measured as described above. In brief, the cell sonicate was incubated in the assay mixture (50 mM sodium citrate (pH 4.0) for [^14C]palmitoylated [sequence] Po peptide substrate (3,000-4,000 cpm) or 50 mM Tris (pH 7.4) for [^14C]palmitoylated MLCCMRR GAP43 peptide substrate) for 20 min at 37° C. After organic extraction, samples were analyzed by HPTLC using n-butanol/pyridine/acetic acid/water (45:30:9:36, by volume) and the radioactive spot corresponding to [^14C] palmitate was counted.
The test system of data set [8] is PPT1 overexpressing LA-N-5 cells. Briefly: Cell death by MTT assay in PPT1 overexpressing cells. It counts as cell-based, human. Conditions: compared to LAN-5 cells. On the procedure: Cells were plated in 24-well culture plates containing 500 μl media. After drug treatment, 50 μl MTT (5 mg/ml in PBS) was added and incubated for 20 min at 37° C. An aliquot of 500 μl of 10% sodium dodecyl sulfate in 0.01 N HCl was added. After incubating overnight, the absorbance at 570 nm was determined by spectrophotometry. Cell viability was calculated as percent cell survival by dividing absorbance [treatment-blank] by absorbance [control-blank], where treatment is the reading for the treated cells, control is for vehicle-treated cells and blank is for MTT added to the media without cells.
In order to further verify that the increased susceptibility to drug-induced apoptosis of the AS-PPT1 treated cells was due to compromised PPT1 activity, the extent of cell death induced by C2-ceramide treatment in control was compared to DAP 1-treated cells. Treatment of cells with DAP1 alone induced 5-10% death of cells at DAP1 concentrations up to 100 μM for 6 h., as measured by MTT assay (FIG. 10A). […] In these cells, neither C2-ceramide, DAP1 alone or DAP1 (100 μM) followed by C2-ceramide (30 μM) for 6 h induced more than 10% cell death (FIG. 10B).
LA-N-5 human neuroblastoma cells were grown in DMEM supplemented with 10% fetal bovine serum and 1% gentamicin. Clones of cells stably expressing PPT1 were selected and maintained by growing in media containing G418 (500 μg/ml) as described (Cho, et al., 2000b). Cell death was measured by the MTT method (Cho et al., 2000a; Cho et al., 2000b; Cho et al., 2000c).
For orientation: Tetrazolium assays rely on reduction of a dye to a coloured formazan, in cell work by metabolically active cells.

In data set [9] the test system is HOG cells, human oligodendroglioma cells. The data set can be described thus: Killing of HOG cells, MTT assay. It counts as cell-based. Conditions: 24 hours. On the procedure: The relative potency of DAP1 compared to DAP1 ketoamide (DAP-KA) in killing cells was evaluated. HOG cells, human oligodendroglioma cells, were exposed for 24 hours to a) DAP1 or DAP-KA (FIG. 15A) or […] etoposide and either DAP 1 or DAP-KA (FIG. 15B). The concentration of etoposide was chosen to give 50% killing as measured by MTT assay.

The target in data set [10] is T2, palmitoyl protein thioesterase 1 (PPT1) (human, UniProt P50897 28-306).
T2 sequence: T1 sequence (P50897 28-306)
Briefly: cell-based or functional assay.

Where a name gives a salt, the structure may show the parent alone. Read-outs that look alike come from different tables or passages of the source. *1 amine or outer side, *2 acyl side, *3 side chain or, on linkers, in order; H or OH if unused. Where a SMILES comes first, the peptide text is derived from it. Bridges are numbered along the chain shown (N, C = ends). Roman numbers before positions name the chains, in order. Where no end group is shown, it is not given here. [ ]: non-standard residue; d: D form. Actinocin(9to1) = Cc1c2oc3c(C)ccc(C(=O)[*:1])c3nc-2c(C(=O)[*:2])c(N)c1=O; NMeV = CN[C@H](C(=O)O)C(C)C; Dap = NC[C@H](N)C(=O)O; Sar = CNCC(=O)O

Consider `C/C=C/C/C=C/CCC(=O)[C@H]1O[C@H]1C(N)=O` (relative stereo) [cerulenin, [2R, 3S]-2,3-epoxy-4-oxo-7,10-trans, trans-dodecadienamide], for which, in data set [1], the “palmitoylation of Ras p21s” value is “able to inhibit the palmitoylation”.
As to `Cc1c2oc3c(C)ccc(C(=O)N[C@@H]4C(=O)N[C@H](C(C)C)C(=O)N5CCC[C@H]5C(=O)N(C)CC(=O)N(C)[C@@H](C(C)C)C(=O)O[C@@H]4C)c3nc-2c(C(=O)N[C@@H]2C(=O)N[C@H](C(C)C)C(=O)N3CCC[C@H]3C(=O)N(C)CC(=O)N(C)[C@@H](C(C)C)C(=O)O[C@@H]2C)c(N)c1=O` [Actinomycin D] (I: T[dV]P[Sar][NMeV] / II: T[dV]P[Sar][NMeV]; ester I:1-I:C, II:1-II:C; linker I:N-II:N via Actinocin(9to1)), the “fraction of dose excreted / recovered in the urine” value in data set [2] is 10%.
Turning to `CC[C@H](C)[C@H]1NC(=O)[C@@H](NC(=O)[C@@H](CC(C)C)N(C)C(=O)[C@@H]2CCCN2C(=O)C(C)O)[C@@H](C)OC(=O)[C@H](Cc2ccc(OC)cc2)N(C)C(=O)[C@@H]2CCCN2C(=O)[C@H](CC(C)C)NC(=O)[C@@H](C)C(=O)[C@H](C(C)C)OC(=O)C[C@@H]1O` (stereo partly shown) [Didemnin], on PPT1 [3], the “mode of PPT1 inhibition” value is on record as “non-competitively inhibit PPT1 activity”.
For `COc1cccc2c1C(=O)c1c(O)c3c(c(O)c1C2=O)C[C@@](O)(C(=O)CO)C[C@@H]3O[C@H]1C[C@H](N)[C@H](O)[C@H](C)O1` [Doxorubicin, 5,12-Naphthacenedione, (8 s-cis)-10-[(3-amino-2,3,6-trideoxy-a-L-lyxo-hexopyranosyl)oxy]-7,8,9,1 0-tetrahydro-6,8,11-trihydroxy-8-(hydroxyacetyl)-1-methoxy-hydrochloride], the “probability of developing impaired myocardial function” value in data set [4] (400 mg/m^2) is on record as 3 to 5%; in data set [4] (450 mg/m^2), 5 to 8%; in data set [4] (500 mg/m^2), 6 to 20%; in data set [4] (total cumulative dose of 300 mg/m^2), 1 to 2%.
As to `O=c1cc(N2CCOCC2)oc2c(-c3ccccc3)cccc12` [LY-294002], the “cell death (MTT assay)” value in [5] is given as “about 50%”.
As for `O=NN(CCCl)C(=O)NC1CCCCC1` [Lomustine, 1-(2-chloro-ethyl)-3-cyclohexyl-1 nitrosourea], in data set [2] (oral, 30 mg/m^2 to 100 mg/m^2), the “radioactivity excreted as degradation products within 24 hours” value is listed as “about half”.
Turning to `N[C@@H](Cc1ccc(N(CCCl)CCCl)cc1)C(=O)O` [Melphalan, 4-[bis(2-chloroethyl)amino]-L-phenylalanine], the “patients showing a favorable response” value in data set [6] is recorded as “one third to one half”.
Turning to `CO[C@@]12[C@H](COC(N)=O)C3=C(C(=O)C(C)=C(N)C3=O)N1C[C@@H]1N[C@@H]12` [Mitomycin], in data set [2], the “fraction of dose excreted / recovered in the urine” value was “Approximately 10%”.
In the case of `O=S(=O)(F)Cc1ccccc1` [PMSF, phenylmethylsulfonyl fluoride], on PPT1 [7] (preincubation with 1 mM, control or PPT1 transfected cells), the “effect on PPT1 enzyme activity” value is on record as “did not affect the enzyme activity”.
For `CC[C@]1(O)C[C@@H]2CN(CCc3c([nH]c4ccccc34)[C@@](C(=O)OC)(c3cc4c(cc3OC)N(C)[C@H]3[C@@](O)(C(=O)OC)[C@H](OC(C)=O)[C@]5(CC)C=CCN6CC[C@]43[C@@H]65)C2)C1` [Vinblastine], the “fraction of dose excreted / recovered in the urine” value in [2] was “Approximately 15%”.
For the molecule `COc1cccc2c1C(=O)c1c(O)c3c(c(O)c1C2=O)C[C@@](O)(C(C)=O)C[C@@H]3O[C@H]1C[C@H](N)[C@H](O)[C@H](C)O1` [daunorubicin, 5,12-Naphthacenedione, (8S-cis)-8-acetyl-10-[(3-amino-2,3 ,6-trideoxy-a-L-lyxo-hexanopyranosyl)oxy]-7,8 ,9,1 0-tetrahydro-6,8, 11-trihydroxy-10-methoxy-, hydrochloride], in [8], the “susceptibility of PPT1 overexpressing cells to killing” value (shortened to “susceptibility”) was “markedly decreased susceptibility to killing”.
For `COc1cc([C@@H]2c3cc4c(cc3[C@@H](O[C@@H]3O[C@@H]5CO[C@@H](C)O[C@H]5[C@H](O)[C@H]3O)[C@H]3COC(=O)[C@H]23)OCO4)cc(OC)c1O` [etoposide], the “susceptibility” value in data set [8] is “markedly decreased susceptibility to killing”. Moreover, in [9] (10 mM etoposide), the “killing (MTT assay)” value turned out to be 50%.
Turning to `CN[C@@H]1C[C@H]2O[C@@](C)([C@@H]1OC)n1c3ccccc3c3c4c(c5c6ccccc6n2c5c31)C(=O)NC4` [staurosporine], in [8], the “susceptibility” value is on record as “markedly decreased susceptibility to killing”.
For “AcG-Dap((+/−)α-hydroxyhexadecanoyl)-VKIKK.amide (Ac-G[Dap]VKIKK-NH2; not fully specified (residue 2); printed as AcG-Dap((+/−)α-hydroxyhexadecanoyl)-VKIKK.amide) [DAP-KA, ketoamide form of DAP1]”, the “potency as inhibitor relative to DAP1” value in the data set with PPT1 [7] is listed as “more potent inhibitor than DAP1”. Moreover, the “potency as inducer of cell death relative to DAP1” value in data set [9] (with etoposide) is “more potent inducer of cell death than DAP1”.
“AcG-palmitoyl diamino propionate-VKIKK (DAP1) (peptide)” showed an inhibition in an in vitro assay (PPT activity) (% inhibition at 20 µM) in data set [10] of 85.
Consider AcGCVKIKK (Ac-GCVKIKK-NH2), for which the “effect on PPT1 activity” value with PPT1 [7] (cell extract preincubated 15 min at 37° C., Po, rhodopsin, GAP-43, Gα peptide substrates) is reported as “did not affect PPT activity”.
With MLCCMRR (also: [14C]palmitoyl thioester on one Cys, which not given here) [[14C]palmitoylated GAP43 peptide (MLCCMRR)], the “depalmitoylation by extract of PPT1-overexpressing cells against vector-transfected cells” value in data set [10] was roughly 2.5 fold.
